System: serum GH-level
Assay: TEST I: depression of serum GH-levels in the rat (GH-secretion inhibiting activity)
Format: in vivo
Details: male rats under Nembutal narcosis, s.c., activity at 60 minutes, serum GH by radio-immuno-assay
Description: This test (TEST I) is carried out employing male rats under Nembutal narcosis. The test-substance is administered at varying, logarithmically staggered doses employing at least 4 rats per dose. The rats are decapitated 60 minutes after administration, the blood is collected and the serum GH-level determined by radio-immuno-assay.
The above test may be adapted to determine effectiveness over prolonged periods of time, e.g. by decapitating 6 or 18 hours after administration. "Polypeptides of Type-T" as hereinbefore defined may be shown to be active in the above described test method when administered at dosages in the aforesaid range, over longer periods of time, e.g. up to 18 hours.

C[C@H](N)C(=O)NCC(=O)N[C@H]1CSSC[C@@H](C(=O)O)NC(=O)[C@H](CO)NC(=O)[C@H]([C@@H](C)O)NC(=O)[C@H](Cc2ccccc2)NC(=O)[C@H]([C@@H](C)O)NC(=O)[C@H](CCCCN)NC(=O)[C@H](Cc2c[nH]c3ccccc23)NC(=O)[C@H](Cc2ccccc2)NC(=O)[C@H](Cc2ccccc2)NC(=O)[C@H](CC(N)=O)NC(=O)[C@H](CCCCN)NC1=O [somatostatin]
ID50 in TEST I (amount of compound required to effect 50% reduction of the GH-level compared with untreated controls): 0.093 mg/kg

Reference: patent publication US4496543A, “Polypeptides, processes for their production, pharmaceutical compositions comprising said polypeptides and their use” (Sandoz Ltd., priority 1982, dated 1985)
